{"source": "paper PMC10382584", "about": "“Macrocyclization of linear molecules by deep learning to facilitate macrocyclic drug candidates discovery” (Nature Communications, 2023);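 note: KINOMEscan kinase panel binding assay, signal normalized between DMSO as 100% and a positive control compound as 0%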", "experiment_in_all_cases": "biochemical", "set-up_in_all_cases": "DiscoveRx KINOMEscan competition binding, percent of DMSO control signal at 100 nM", "details_in_all_cases": "read-out: Fig. 4a / Percent Control / Compound 1; percent of DMSO control, competition binding", "key": {"p38-gamma": {"target": "T1, p38-gamma (Homo sapiens, UniProt P53778)", "T1 construct": "gene MAPK12"}, "QSK": {"target": "T2, QSK (Homo sapiens, UniProt Q9Y2K2)", "T2 construct": "gene SIK3"}, "NEK5": {"target": "NEK5 (Homo sapiens, UniProt Q6P3R8)"}, "MAP4K5": {"target": "MAP4K5 (Homo sapiens, UniProt Q9Y4K4)", "sequence (Q9Y4K4 whole entry)": "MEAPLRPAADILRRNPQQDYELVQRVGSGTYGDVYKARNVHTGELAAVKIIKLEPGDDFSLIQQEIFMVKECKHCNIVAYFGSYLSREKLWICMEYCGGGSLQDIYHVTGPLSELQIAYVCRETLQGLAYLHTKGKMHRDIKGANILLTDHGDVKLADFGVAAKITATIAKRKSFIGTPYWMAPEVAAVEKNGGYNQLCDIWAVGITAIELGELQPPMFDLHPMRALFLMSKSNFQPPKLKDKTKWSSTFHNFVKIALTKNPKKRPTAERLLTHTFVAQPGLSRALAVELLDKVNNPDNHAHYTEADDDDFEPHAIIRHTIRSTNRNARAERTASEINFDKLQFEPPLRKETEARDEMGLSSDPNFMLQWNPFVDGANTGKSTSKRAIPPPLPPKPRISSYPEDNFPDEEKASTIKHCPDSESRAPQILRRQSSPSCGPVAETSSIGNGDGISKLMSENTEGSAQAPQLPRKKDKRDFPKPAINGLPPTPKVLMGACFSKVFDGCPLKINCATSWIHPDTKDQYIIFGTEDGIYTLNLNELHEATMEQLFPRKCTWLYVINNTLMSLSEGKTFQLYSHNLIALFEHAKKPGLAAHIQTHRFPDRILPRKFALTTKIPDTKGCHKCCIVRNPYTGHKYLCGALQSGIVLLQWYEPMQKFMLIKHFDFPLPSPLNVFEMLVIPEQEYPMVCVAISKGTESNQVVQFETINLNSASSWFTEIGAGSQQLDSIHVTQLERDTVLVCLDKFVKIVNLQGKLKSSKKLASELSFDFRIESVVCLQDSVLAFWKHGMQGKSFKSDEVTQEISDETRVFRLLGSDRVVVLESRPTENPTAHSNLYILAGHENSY"}, "SRPK2": {"target": "SRPK2 (Homo sapiens, UniProt P78362)"}, "INSR": {"target": "INSR (Homo sapiens, UniProt P06213)"}, "EIF2AK1": {"target": "EIF2AK1 (Homo sapiens, UniProt Q9BQI3)"}, "ERBB2": {"target": "ERBB2 (Homo sapiens, UniProt P04626)"}, "BMPR1B": {"target": "BMPR1B (Homo sapiens, UniProt O00238)", "sequence (O00238 whole entry)": "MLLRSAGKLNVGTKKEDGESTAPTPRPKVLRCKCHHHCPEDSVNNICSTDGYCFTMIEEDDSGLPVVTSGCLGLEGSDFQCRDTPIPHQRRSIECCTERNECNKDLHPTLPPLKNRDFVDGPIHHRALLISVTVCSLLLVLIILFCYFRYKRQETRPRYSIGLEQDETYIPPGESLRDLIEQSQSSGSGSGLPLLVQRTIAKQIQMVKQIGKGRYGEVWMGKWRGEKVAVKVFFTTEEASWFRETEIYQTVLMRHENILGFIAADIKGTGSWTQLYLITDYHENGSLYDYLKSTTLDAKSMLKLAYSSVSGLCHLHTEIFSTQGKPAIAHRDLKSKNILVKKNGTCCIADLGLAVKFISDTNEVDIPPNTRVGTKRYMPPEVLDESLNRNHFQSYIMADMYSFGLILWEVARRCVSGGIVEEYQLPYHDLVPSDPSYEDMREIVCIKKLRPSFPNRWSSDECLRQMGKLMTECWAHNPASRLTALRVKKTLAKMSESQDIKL"}, "MEK6": {"target": "T3, MEK6 (Homo sapiens, UniProt P52564)", "T3 construct": "gene MAP2K6"}, "[1]": {"target": "T4, ABL1(Q252H)-nonphosphorylated (Homo sapiens, UniProt P00519, Q252H)", "T4 construct": "nonphosphorylated"}, "GRK3": {"target": "GRK3 (Homo sapiens, UniProt P35626)", "sequence (P35626 whole entry)": "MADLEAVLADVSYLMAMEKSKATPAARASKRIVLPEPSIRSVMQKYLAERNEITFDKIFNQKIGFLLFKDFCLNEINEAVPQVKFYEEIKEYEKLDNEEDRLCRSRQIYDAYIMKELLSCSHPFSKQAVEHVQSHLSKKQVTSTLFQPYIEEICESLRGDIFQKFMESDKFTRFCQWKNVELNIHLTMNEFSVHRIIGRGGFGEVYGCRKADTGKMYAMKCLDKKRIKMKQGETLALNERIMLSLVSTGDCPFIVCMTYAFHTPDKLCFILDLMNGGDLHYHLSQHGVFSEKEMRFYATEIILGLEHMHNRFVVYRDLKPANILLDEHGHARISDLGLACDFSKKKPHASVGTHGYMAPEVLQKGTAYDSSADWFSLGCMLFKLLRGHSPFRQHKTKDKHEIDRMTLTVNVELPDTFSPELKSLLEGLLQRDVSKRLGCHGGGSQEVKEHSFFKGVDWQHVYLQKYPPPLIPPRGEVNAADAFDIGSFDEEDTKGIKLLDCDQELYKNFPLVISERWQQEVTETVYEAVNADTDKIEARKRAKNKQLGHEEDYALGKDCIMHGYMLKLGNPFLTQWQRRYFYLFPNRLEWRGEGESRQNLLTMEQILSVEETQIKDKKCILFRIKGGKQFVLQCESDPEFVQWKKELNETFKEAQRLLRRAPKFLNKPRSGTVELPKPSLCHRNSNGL"}, "ALK(C1156Y)": {"target": "ALK(C1156Y) (Homo sapiens, UniProt Q9UM73, C1156Y)"}, "MKNK2": {"target": "MKNK2 (Homo sapiens, UniProt Q9HBH9)"}, "CDK8": {"target": "CDK8 (Homo sapiens, UniProt P49336)"}, "CDK5": {"target": "CDK5 (Homo sapiens, UniProt Q00535)"}, "FLT3(ITD,D835V)": {"target": "FLT3(ITD,D835V) (Homo sapiens, UniProt P36888, D835V/ITD)"}, "CSNK1G2": {"target": "CSNK1G2 (Homo sapiens, UniProt P78368)"}, "KIT(L576P)": {"target": "KIT(L576P) (Homo sapiens, UniProt P10721, L576P)", "sequence (P10721 whole entry L576P)": "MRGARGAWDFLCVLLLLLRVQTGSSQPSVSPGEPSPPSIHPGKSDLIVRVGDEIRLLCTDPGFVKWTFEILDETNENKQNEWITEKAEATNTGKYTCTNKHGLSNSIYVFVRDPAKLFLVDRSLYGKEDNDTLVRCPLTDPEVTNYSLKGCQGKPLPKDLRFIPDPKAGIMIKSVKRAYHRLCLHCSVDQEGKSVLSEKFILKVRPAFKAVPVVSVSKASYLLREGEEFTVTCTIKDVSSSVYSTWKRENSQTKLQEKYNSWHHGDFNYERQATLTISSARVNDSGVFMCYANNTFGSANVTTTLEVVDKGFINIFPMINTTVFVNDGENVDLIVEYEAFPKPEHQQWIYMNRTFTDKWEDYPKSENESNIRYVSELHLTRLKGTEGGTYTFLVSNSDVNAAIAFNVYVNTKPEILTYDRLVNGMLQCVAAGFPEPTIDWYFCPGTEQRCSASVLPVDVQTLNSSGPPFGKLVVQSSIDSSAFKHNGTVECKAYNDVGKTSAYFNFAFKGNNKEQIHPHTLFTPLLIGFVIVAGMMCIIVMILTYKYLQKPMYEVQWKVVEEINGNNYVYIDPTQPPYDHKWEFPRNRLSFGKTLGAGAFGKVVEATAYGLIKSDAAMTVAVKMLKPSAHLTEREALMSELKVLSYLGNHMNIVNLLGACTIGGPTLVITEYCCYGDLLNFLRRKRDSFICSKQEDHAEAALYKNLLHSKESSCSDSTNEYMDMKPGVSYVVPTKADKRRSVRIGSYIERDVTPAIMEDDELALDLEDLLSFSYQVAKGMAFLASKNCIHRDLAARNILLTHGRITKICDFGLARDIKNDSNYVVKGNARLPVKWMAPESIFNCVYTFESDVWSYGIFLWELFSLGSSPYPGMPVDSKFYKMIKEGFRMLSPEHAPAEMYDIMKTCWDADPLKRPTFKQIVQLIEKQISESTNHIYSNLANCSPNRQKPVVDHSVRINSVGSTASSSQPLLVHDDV"}, "NEK1": {"target": "NEK1 (Homo sapiens, UniProt Q96PY6)", "sequence (Q96PY6 whole entry)": "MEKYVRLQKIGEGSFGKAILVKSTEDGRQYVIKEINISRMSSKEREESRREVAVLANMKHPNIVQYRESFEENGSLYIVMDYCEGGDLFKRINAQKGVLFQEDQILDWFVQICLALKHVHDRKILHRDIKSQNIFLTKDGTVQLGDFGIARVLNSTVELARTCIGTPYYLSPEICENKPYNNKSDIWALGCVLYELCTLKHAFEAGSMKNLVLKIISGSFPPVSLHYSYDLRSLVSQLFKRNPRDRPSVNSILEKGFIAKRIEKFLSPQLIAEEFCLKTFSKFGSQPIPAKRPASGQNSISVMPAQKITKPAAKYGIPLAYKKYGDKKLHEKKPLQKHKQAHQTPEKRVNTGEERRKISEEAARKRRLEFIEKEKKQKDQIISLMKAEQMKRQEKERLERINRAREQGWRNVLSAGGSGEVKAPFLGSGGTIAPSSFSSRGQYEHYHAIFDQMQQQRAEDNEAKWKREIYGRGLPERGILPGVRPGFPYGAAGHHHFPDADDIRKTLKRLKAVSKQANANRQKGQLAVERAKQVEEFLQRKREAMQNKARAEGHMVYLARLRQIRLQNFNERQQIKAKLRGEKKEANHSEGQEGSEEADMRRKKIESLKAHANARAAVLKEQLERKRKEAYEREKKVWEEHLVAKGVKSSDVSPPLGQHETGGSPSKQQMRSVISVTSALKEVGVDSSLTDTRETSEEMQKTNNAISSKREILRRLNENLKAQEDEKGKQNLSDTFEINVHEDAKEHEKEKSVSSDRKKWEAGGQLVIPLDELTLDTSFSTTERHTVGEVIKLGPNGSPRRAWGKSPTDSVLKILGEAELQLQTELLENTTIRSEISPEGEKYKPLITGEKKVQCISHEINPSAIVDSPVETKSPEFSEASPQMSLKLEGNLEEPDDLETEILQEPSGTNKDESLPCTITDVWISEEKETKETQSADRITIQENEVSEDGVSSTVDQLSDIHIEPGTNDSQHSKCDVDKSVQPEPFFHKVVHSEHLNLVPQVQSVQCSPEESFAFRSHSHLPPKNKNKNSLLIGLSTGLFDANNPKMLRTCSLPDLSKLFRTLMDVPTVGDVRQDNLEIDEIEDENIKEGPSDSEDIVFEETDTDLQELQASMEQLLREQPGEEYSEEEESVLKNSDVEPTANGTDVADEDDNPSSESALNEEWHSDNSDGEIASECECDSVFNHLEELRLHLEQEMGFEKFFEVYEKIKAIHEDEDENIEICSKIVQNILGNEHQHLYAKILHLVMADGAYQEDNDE"}, "SGK": {"target": "T5, SGK (Homo sapiens, UniProt O00141)", "T5 construct": "gene SGK1"}, "MAP3K2": {"target": "MAP3K2 (Homo sapiens, UniProt Q9Y2U5)", "sequence (Q9Y2U5 whole entry)": "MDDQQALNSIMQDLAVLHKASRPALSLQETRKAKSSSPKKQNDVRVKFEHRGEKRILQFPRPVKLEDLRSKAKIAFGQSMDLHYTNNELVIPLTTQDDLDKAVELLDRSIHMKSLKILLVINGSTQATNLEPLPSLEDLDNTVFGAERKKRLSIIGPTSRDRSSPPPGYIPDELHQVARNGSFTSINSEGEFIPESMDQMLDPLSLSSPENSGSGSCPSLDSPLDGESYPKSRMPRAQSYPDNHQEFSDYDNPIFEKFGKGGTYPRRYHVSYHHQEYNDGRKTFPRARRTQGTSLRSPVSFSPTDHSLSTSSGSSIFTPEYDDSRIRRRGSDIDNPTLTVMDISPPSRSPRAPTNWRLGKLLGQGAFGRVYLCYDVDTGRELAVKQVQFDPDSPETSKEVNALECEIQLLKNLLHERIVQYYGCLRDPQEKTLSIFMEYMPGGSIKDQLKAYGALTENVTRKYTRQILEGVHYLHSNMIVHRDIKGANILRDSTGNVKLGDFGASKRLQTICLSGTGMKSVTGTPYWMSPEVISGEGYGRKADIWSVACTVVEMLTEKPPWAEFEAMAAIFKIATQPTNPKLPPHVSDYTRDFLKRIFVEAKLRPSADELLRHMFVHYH"}, "BRSK2": {"target": "BRSK2 (Homo sapiens, UniProt Q8IWQ3)"}, "AKT3": {"target": "AKT3 (Homo sapiens, UniProt Q9Y243)"}, "IRAK1": {"target": "IRAK1 (Homo sapiens, UniProt P51617)"}}, "data": [{"molecule": "Cc1cnc2nc1Nc1cccc(c1)COCc1cc(ccc1OCCN1CCCC1)N2", "note": "[Compound 1]", "values": [{"measurement": "remaining binding at 0.1 µM", "setting": "p38-gamma", "result": 100, "unit": "%"}, {"measurement": "remaining binding at 0.1 µM", "setting": "QSK", "result": 63, "unit": "%"}, {"measurement": "remaining binding at 0.1 µM", "setting": "NEK5", "result": 93, "unit": "%"}, {"measurement": "remaining binding at 0.1 µM", "setting": "MAP4K5", "result": 98, "unit": "%"}, {"measurement": "remaining binding at 0.1 µM", "setting": "SRPK2", "result": 100, "unit": "%"}, {"measurement": "remaining binding at 0.1 µM", "setting": "INSR", "result": 84, "unit": "%"}, {"measurement": "remaining binding at 0.1 µM", "setting": "EIF2AK1", "result": 76, "unit": "%"}, {"measurement": "remaining binding at 0.1 µM", "setting": "ERBB2", "result": 96, "unit": "%"}, {"measurement": "remaining binding at 0.1 µM", "setting": "BMPR1B", "result": 63, "unit": "%"}, {"measurement": "remaining binding at 0.1 µM", "setting": "MEK6", "result": 100, "unit": "%"}, {"measurement": "remaining binding at 0.1 µM", "setting": "[1]", "result": 51, "unit": "%"}, {"measurement": "remaining binding at 0.1 µM", "setting": "GRK3", "result": 72, "unit": "%"}, {"measurement": "remaining binding at 0.1 µM", "setting": "ALK(C1156Y)", "result": 40, "unit": "%"}, {"measurement": "remaining binding at 0.1 µM", "setting": "MKNK2", "result": 67, "unit": "%"}, {"measurement": "remaining binding at 0.1 µM", "setting": "CDK8", "result": 100, "unit": "%"}, {"measurement": "remaining binding at 0.1 µM", "setting": "CDK5", "result": 100, "unit": "%"}, {"measurement": "remaining binding at 0.1 µM", "setting": "FLT3(ITD,D835V)", "result": 2.1, "unit": "%"}, {"measurement": "remaining binding at 0.1 µM", "setting": "CSNK1G2", "result": 99, "unit": "%"}, {"measurement": "remaining binding at 0.1 µM", "setting": "KIT(L576P)", "result": 14, "unit": "%"}, {"measurement": "remaining binding at 0.1 µM", "setting": "NEK1", "result": 100, "unit": "%"}, {"measurement": "remaining binding at 0.1 µM", "setting": "SGK", "result": 75, "unit": "%"}, {"measurement": "remaining binding at 0.1 µM", "setting": "MAP3K2", "result": 50, "unit": "%"}, {"measurement": "remaining binding at 0.1 µM", "setting": "BRSK2", "result": 94, "unit": "%"}, {"measurement": "remaining binding at 0.1 µM", "setting": "AKT3", "result": 100, "unit": "%"}, {"measurement": "remaining binding at 0.1 µM", "setting": "IRAK1", "result": 31, "unit": "%"}]}]}
